The values that follow come from patent publication US20240226106A1, “INHIBITORS OF PLASMA KALLIKREIN” (SHIRE HUMAN GENETIC THERAPIES, INC., priority 2021, published 2024).

Usually EC50 stands for the concentration at which the effect is half-maximal.

In the assay the target is human activated kallikrein enzyme (Homo sapiens, UniProt P03952). The experiment in a line: Inhibition of human activated plasma kallikrein, fluorogenic peptide substrate (PFR-AMC), 500 pM enzyme format. Type of assay: biochemical. To be noted: 500 pM activated kallikrein, 30 min preincubation, 10 min reaction, room temperature, read-out: Primary Dose Response Assay: Average EC50. As for the experimental part:
Compounds were evaluated for inhibition of the human activated kallikrein enzyme in two formats of an assay employing a fluorogenic peptide substrate. In one assay format, the concentrations of reagents were as follows: 20 mM Tris pH 7.5, 1 mM EDTA, 150 mM sodium chloride, 0.1% PEG-400, 0.1% Triton X-100, 500 pM activated kallikrein enzyme, […] Pro-Phe-Arg-7-amido-4-methylcoumarin (PFR-AMC) substrate. Prior to reaction initiation with substrate, enzyme and inhibitors were preincubated for 30 min at room temperature. After initiation with substrate, reactions were incubated for 10 min at room temperature and fluorescence emission at 460 nm from 380 nm excitation measured with a microplate reader. In another assay format, the concentrations of reagents were as follows: 20 mM Tris pH 7.5, 1 mM EDTA, 150 mM sodium chloride, 0.1% PEG-400, 0.1% Triton X-100, 5 pM activated kallikrein enzyme, 300 uM PFR-AMC substrate. Prior to reaction initiation with substrate, enzyme and inhibitors were preincubated for 30 min at room temperature. After initiation with substrate, reactions were incubated for 18 hr at room temperature and fluorescence emission at 460 nm from 380 nm excitation measured with a microplate reader.

human activated kallikrein enzyme, sequence (P03952 391-638 limits assumed): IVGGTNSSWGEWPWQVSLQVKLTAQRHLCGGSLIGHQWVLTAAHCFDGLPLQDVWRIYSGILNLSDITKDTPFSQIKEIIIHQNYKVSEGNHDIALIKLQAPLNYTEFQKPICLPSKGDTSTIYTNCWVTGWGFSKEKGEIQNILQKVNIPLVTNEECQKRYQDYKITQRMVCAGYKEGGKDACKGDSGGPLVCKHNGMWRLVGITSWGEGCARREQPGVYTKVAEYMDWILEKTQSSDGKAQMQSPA
human activated kallikrein enzyme, sequence (P03952 20-390 partner limits assumed): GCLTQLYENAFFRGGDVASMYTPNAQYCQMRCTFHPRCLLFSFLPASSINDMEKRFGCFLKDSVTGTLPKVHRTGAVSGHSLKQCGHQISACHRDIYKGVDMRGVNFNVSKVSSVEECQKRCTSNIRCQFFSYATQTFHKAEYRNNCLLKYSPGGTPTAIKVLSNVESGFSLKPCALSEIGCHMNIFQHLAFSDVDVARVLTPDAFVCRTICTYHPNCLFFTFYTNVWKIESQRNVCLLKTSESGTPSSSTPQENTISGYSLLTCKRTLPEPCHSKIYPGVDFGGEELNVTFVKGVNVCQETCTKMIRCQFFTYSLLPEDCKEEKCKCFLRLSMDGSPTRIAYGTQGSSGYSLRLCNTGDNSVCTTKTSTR

For `O=C(Nc1cc(OCc2ccc(Cn3cccn3)cc2)cnn1)[C@H]1C[C@@H]1c1cncc(Cl)c1` (racemic) [Example 1, rac-(1S*,2S*)—N-(5-((4-((1H-pyrazol-1-yl)methyl)benzyl)oxy)pyridazin-3-yl)-2-(5-chloropyridin-3-yl)cyclopropane-1-carboxamide], the EC50 is greater than 500 nM.
The result for `O=C(Nc1cc(OCc2csc(-c3ccccc3)n2)cnn1)[C@H]1C[C@@H]1c1cccc(Cl)c1` (racemic) [Example 2, rac-(1S*,2S*)-2-(3-chlorophenyl)-N-(5-((2-phenylthiazol-4-yl)methoxy)pyridazin-3-yl)cyclopropane-1-carboxamide] reads greater than 500 nM; that for `O=C(Nc1cc(OCc2ccc(Cn3ccc(C4CC4)n3)cc2)cnn1)[C@H]1C[C@@H]1c1cccc(Cl)c1` (racemic) [Example 4, rac-(1S*,2S*)-2-(3-chlorophenyl)-N-(5-((4-((3-cyclopropyl-1H-pyrazol-1-yl)methyl)benzyl)oxy)pyridazin-3-yl)cyclopropane-1-carboxamide], greater than 500 nM; that for `O=C(Nc1cc(OCc2ccc(Cn3cccn3)cc2)cnn1)[C@H]1C[C@@H]1c1cccnc1Cl` (racemic) [Example 5, rac-(1S*,2S*)—N-(5-((4-((1H-pyrazol-1-yl)methyl)benzyl)oxy)pyridazin-3-yl)-2-(2-chloropyridin-3-yl)cyclopropane-1-carboxamide], greater than 500 nM.
On to `O=C(Nc1cc(OCc2ccc(Cn3cccn3)cc2)cnn1)[C@H]1C[C@@H]1c1cn[nH]c1` (racemic) [Example 6, rac-(1S*,2S*)—N-(5-((4-((1H-pyrazol-1-yl)methyl)benzyl)oxy)pyridazin-3-yl)-2-(1H-pyrazol-4-yl)cyclopropane-1-carboxamide], for which the EC50 was greater than 500 nM.
Take `Nc1ncccc1[C@H]1C[C@@H]1C(=O)Nc1cc(OCc2ccc(Cn3cccn3)cc2)cnn1` (racemic) [Example 8, rac-(1S*,2S*)—N-(5-((4-((1H-pyrazol-1-yl)methyl)benzyl)oxy)pyridazin-3-yl)-2-(2-aminopyridin-3-yl)cyclopropane-1-carboxamide]: the EC50 fell in the range of 25 to 500 nM.
In the case of `O=C(Nc1cn(Cc2ccc(Cn3cccn3)cc2)cn1)[C@H]1C[C@@H]1c1cccc(Cl)c1` (racemic) [Example 9, rac-(1S*,2S*)—N-(1-(4-((1H-pyrazol-1-yl)methyl)benzyl)-1H-imidazol-4-yl)-2-(3-chlorophenyl)cyclopropane-1-carboxamide], the concentration for a half-maximal effect (EC50) is greater than 500 nM.
To `O=C(Nc1cnn(Cc2ccc(Cn3cccn3)cc2)c1)[C@H]1C[C@@H]1c1cccc(Cl)c1` (racemic) [Example 10, rac-(1S*,2S*)—N-(1-(4-((1H-pyrazol-1-yl)methyl)benzyl)-1H-pyrazol-4-yl)-2-(3-chlorophenyl)cyclopropane-1-carboxamide] belongs greater than 500 nM; to `Cc1cnn(-c2cc(COc3cnnc(NC(=O)[C@H]4C[C@@H]4c4cccc(Cl)c4)c3)ccn2)c1` (racemic) [Example 11, rac-(1S*,2S*)-2-(3-chlorophenyl)-N-(5-((2-(4-methyl-1H-pyrazol-1-yl)pyridin-4-yl)methoxy)pyridazin-3-yl)cyclopropanecarboxamide], greater than 500 nM; to `O=C(Nc1cc(OCc2ccc(-n3ccnc3)cc2)cnn1)[C@H]1C[C@@H]1c1cccc(Cl)c1` (racemic) [Example 12, rac-(1S*,2S*)—N-(5-((4-(1H-imidazol-1-yl)benzyl)oxy)pyridazin-3-yl)-2-(3-chlorophenyl)cyclopropane-1-carboxamide], greater than 500 nM.
In the case of `O=C(Nc1cc(OCc2ccc(-c3ncc[nH]3)cc2)cnn1)[C@H]1C[C@@H]1c1cccc(Cl)c1` (racemic) [Example 13, rac-(1S*,2S*)—N-(5-((4-(1H-imidazol-2-yl)benzyl)oxy)pyridazin-3-yl)-2-(3-chlorophenyl)cyclopropane-1-carboxamide], the EC50 was greater than 500 nM.
In the case of `O=C(Nc1cc(NCc2ccc(Cn3ccccc3=O)cc2)cnn1)[C@H]1C[C@@H]1c1cccc(Cl)c1` (racemic) [Example 14, rac-(1S*,2S*)-2-(3-chlorophenyl)-N-(5-((4-((2-oxopyridin-1 (2H)-yl)methyl)benzyl)amino)pyridazin-3-yl)cyclopropane-1-carboxamide], the EC50 is less than 2.5 nM.
On to `O=C(Nc1cc(NCc2ccc(Cn3cc(Cl)ccc3=O)cc2)cnn1)[C@H]1C[C@@H]1c1cccc(Cl)c1` (racemic) [Example 17, rac-(1S*,2S*)—N-(5-((4-((5-chloro-2-oxopyridin-1 (2H)-yl)methyl)benzyl)amino)pyridazin-3-yl)-2-(3-chlorophenyl)cyclopropane-1-carboxamide], for which the 50% effective concentration (EC50) lay within 2.5 to 25 nM.
Consider `O=C(Nc1cc(OCc2ccc(Cn3cccn3)cc2)cnn1)[C@H]1C[C@@H]1c1cccc(Cl)c1` (racemic) [Example 18, rac-(1S*,2S*)—N-(5-((4-((1H-pyrazol-1-yl)methyl)benzyl)oxy)pyridazin-3-yl)-2-(3-chlorophenyl)cyclopropane-1-carboxamide], for which the EC50 lay within 2.5 to 25 nM.
In the case of `O=C(Nc1cc(NCc2ccc(Cn3ccccc3=O)cc2)cnn1)[C@H]1C[C@H]1c1cccc(Cl)c1` (racemic) [Example 19, rac-(1R*,2S*)-2-(3-chlorophenyl)-N-(5-((4-((2-oxopyridin-1 (2H)-yl)methyl)benzyl)amino)pyridazin-3-yl)cyclopropane-1-carboxamide], the 50% effective concentration (EC50) was greater than 500 nM.
On to `O=C(Nc1cc(C2(c3ccc(Cn4cc(Cl)ccc4=O)cc3)CC2)cnn1)[C@H]1C[C@@H]1c1cccc(Cl)c1` (racemic) [Example 20, rac-(1S*,2S*)—N-(5-(1-(4-((5-chloro-2-oxopyridin-1 (2H)-yl)methyl)phenyl)cyclopropyl)pyridazin-3-yl)-2-(3-chlorophenyl)cyclopropane-1-carboxamide], for which the EC50 was greater than 500 nM.
`O=C(Nc1cc(Cc2ccc3ncc(C4CC4)cc3c2)ncn1)[C@H]1C[C@@H]1c1cccc(Cl)c1` (racemic) [Example 21, rac-(1S*,2S*)-2-(3-chlorophenyl)-N-(6-((3-cyclopropylquinolin-6-yl)methyl)pyrimidin-4-yl)cyclopropane-1-carboxamide]: the EC50 is greater than 500 nM.
Regarding `N#Cc1ccc(Cl)cc1[C@H]1C[C@@H]1C(=O)Nc1cc(NCc2nc3ccc(C4CC4)cn3n2)ncn1` (racemic) [Example 24, rac-(1S*,2S*)-2-(5-chloro-2-cyanophenyl)-N-(6-(((6-cyclopropyl-[1,2,4]triazolo[1,5-a]pyridin-2-yl)methyl)amino)pyrimidin-4-yl)cyclopropane-1-carboxamide], the EC50 was 2.5 to 25 nM.
For the molecule `N#Cc1ccc(Cl)cc1[C@H]1C[C@@H]1C(=O)Nc1cc(NCc2nc3ccc(C4CC4)nn3n2)ncn1` (racemic) [Example 27, rac-(1S*,2S*)-2-(5-chloro-2-cyanophenyl)-N-(6-(((6-cyclopropyl-[1,2,4]triazolo[1,5-b]pyridazin-2-yl)methyl)amino)pyrimidin-4-yl)cyclopropane-1-carboxamide], the EC50 was in the range of 2.5 to 25 nM.
As for `N#Cc1ccc(Cl)cc1[C@H]1C[C@@H]1C(=O)Nc1cc(NCc2nc3ccc(C4CC4)cn3n2)ccn1` (racemic) [Example 30, rac-(1S*,2S*)-2-(5-chloro-2-cyanophenyl)-N-(4-(((6-cyclopropyl-[1,2,4]triazolo[1,5-a]pyridin-2-yl)methyl)amino)pyridin-2-yl)cyclopropane-1-carboxamide], the EC50 is less than 2.5 nM.
For `Cc1ccnc([C@H]2C[C@@H]2C(=O)Nc2cc(N3C[C@@H](O)C[C@H]3c3ccc(N4CC5CC5C4)nc3)ncn2)n1` (mixture of isomers) [Example 70, rac-(1S*,2S*)—N-(6-((2S*,4S)-2-(6-(3-azabicyclo[3.1.0]hexan-3-yl)pyridin-3yl)-4-hydroxypyrrolidin-1-yl)pyrimidin-4-yl)-2-(4-methylpyrimidin-2-yl)cyclopropane-1-carboxamide], the EC50 was greater than 500 nM.
Consider `Cc1ccnc([C@H]2C[C@@H]2C(=O)Nc2cc(NCc3nc4ncc(C5CC5)cn4n3)ncn2)n1` (racemic) [Example 78, rac-(1S*,2S*)—N-(6-(((6-cyclopropyl-[1,2,4]triazolo[1,5-a]pyrimidin-2-yl)methyl)amino)pyrimidin-4-yl)-2-(4-methylpyrimidin-2-yl)cyclopropane-1-carboxamide], for which the EC50 lay in the range of 2.5 to 25 nM.
With `CC(Oc1cnnc(NC(=O)[C@H]2C[C@@H]2c2cccc(Cl)c2)c1)c1ccc(Cn2cccn2)cc1` (relative stereo) [Example 3, rac-(1S*,2S*)-N-(5-(1-(4-((1H-pyrazol-1-yl)methyl)phenyl)ethoxy)pyridazin-3-yl)-2-(3-chlorophenyl)cyclopropane-1-carboxamide], the EC50 is 2.5 to 25 nM.
Consider `Cc1ccnc([C@H]2C[C@@H]2C(=O)Nc2cc(N3C[C@@H](O)CC3c3ccc(N4CC5CC5C4)nc3)ncn2)n1` (relative stereo) [Example 69, rac-(1S*,2S*)—N-(6-((4S)-2-(6-(3-azabicyclo[3.1.0]hexan-3-yl)pyrin-3-yl)-4-hydroxypyrrolidin-1-yl)pyrimidin-4-yl)-2-(4-methylpyrimidin-2-yl)cyclopropane-1-carboxamide], for which the EC50 is 2.5 to 25 nM.
Turning to `Cc1ccnc([C@H]2C[C@@H]2C(=O)Nc2cc(N3C[C@@H](O)C[C@@H]3c3cn4cc(C5CC5)cnc4n3)ncn2)c1F` (relative stereo) [Example 76, rac-(1S*,2S*)—N-(6-((2R,4S)-2-(6-cyclopropylimidazo[1,2-a]pyrimidin-2-yl)-4-hydroxypyrrolidin-1-yl)pyrimidin-4-yl)-2-(3-fluoro-4-methylpyridin-2-yl)cyclopropane-1-carboxamide], the EC50 is 25 to 500 nM.
